Where two headings read alike, the source gives them in different places. Values belong to the compound of their own block, whether it stands above or below them.
Key:
EPHB6 = target: T1, EPHB6 (Homo sapiens, UniProt O15197); assay: NanoBRET target engagement, EPHB6-NanoLuc, HEK293 cells (live, ATP depleted, permeabilized); conditions: for EC50: read-out: Tracer Affinity EC50, EPHB6-NanoLuc
T1 sequence (O15197 32-1021): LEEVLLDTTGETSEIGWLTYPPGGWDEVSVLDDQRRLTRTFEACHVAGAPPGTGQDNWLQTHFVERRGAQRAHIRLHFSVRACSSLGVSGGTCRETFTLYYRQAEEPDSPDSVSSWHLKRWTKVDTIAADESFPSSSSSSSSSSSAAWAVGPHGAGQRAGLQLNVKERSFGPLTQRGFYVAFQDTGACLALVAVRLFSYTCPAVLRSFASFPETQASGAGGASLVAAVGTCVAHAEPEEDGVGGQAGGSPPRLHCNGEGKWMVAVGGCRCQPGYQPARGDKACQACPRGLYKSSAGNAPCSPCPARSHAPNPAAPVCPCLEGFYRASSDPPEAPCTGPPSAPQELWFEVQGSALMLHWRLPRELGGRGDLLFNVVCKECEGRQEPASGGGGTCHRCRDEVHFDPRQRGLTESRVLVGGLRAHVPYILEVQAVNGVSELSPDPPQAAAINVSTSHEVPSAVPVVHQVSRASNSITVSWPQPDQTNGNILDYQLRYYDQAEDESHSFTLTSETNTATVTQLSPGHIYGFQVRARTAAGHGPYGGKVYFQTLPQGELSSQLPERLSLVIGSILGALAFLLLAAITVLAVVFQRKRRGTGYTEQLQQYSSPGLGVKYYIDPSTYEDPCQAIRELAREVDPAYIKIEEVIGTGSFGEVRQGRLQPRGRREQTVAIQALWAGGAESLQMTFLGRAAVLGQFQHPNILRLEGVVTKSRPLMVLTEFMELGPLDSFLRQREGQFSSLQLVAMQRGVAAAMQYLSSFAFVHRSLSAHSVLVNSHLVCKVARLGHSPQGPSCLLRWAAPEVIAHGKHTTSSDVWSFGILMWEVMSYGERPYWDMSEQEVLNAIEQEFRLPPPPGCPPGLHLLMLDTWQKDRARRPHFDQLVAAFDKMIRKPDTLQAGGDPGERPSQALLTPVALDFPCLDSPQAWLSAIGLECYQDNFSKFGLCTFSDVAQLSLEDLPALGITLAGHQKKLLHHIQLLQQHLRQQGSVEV

[1] = target: full-length kinase/Nluc fusion proteins (Homo sapiens, UniProt Q15759); assay: Apparent affinity (EC50) of energy transfer probes by titration onto live HEK293 cells expressing kinase/Nluc fusions (Table S1); type: binding; conditions: MAPK11, Nluc N; read-out: Probe EC50
[2] = target: full-length kinase/Nluc fusion proteins (Homo sapiens, UniProt P09769); assay: as above; type: binding; conditions: FGR, Nluc N; read-out: Probe EC50
[3] = target: full-length kinase/Nluc fusion proteins (Homo sapiens, UniProt P06239); assay: as above; type: binding; conditions: LCK
[4] = target: full-length kinase/Nluc fusion proteins (Homo sapiens, UniProt P21709); assay: as above; type: binding; conditions: EPHA1, Nluc C; read-out: Probe EC50
[5] = target: full-length kinase/Nluc fusion proteins (Homo sapiens, UniProt P42680); assay: as above; type: binding; conditions: TEC (NP_003206), Nluc orientation N; read-out: Probe EC50
[6] = target: full-length kinase/Nluc fusion proteins (Homo sapiens, UniProt P07948); assay: as above; type: binding; conditions: LYN, Nluc C; read-out: Probe EC50
INSR = conditions: read-out: Crizotinib IC50 Biochemical; ref Cui et al., 2011; cited from earlier work
[7] = target: full-length kinase/Nluc fusion proteins (Homo sapiens, UniProt Q9UF33); assay: Apparent affinity (EC50) of energy transfer probes by titration onto live HEK293 cells expressing kinase/Nluc fusions (Table S1); type: binding; conditions: EPHA6, Nluc C; read-out: Probe EC50
[8] = target: full-length kinase/Nluc fusion proteins (Homo sapiens, UniProt P45983); assay: as above; type: binding; conditions: read-out: Probe EC50
[9] = target: full-length kinase/Nluc fusion proteins (Homo sapiens, UniProt P06213); assay: as above; type: binding; conditions: INSR, Nluc C; read-out: Probe EC50
[10] = target: full-length kinase/Nluc fusion proteins (Homo sapiens, UniProt Q9BYT3); assay: as above; type: binding; conditions: STK33 (NP_001275990), Nluc orientation N; read-out: Probe EC50
[11] = target: full-length kinase/Nluc fusion proteins (Homo sapiens, UniProt P08069); assay: as above; type: binding; conditions: IGF1R, Nluc C; read-out: Probe EC50
[12] = target: full-length kinase/Nluc fusion proteins (Homo sapiens, UniProt Q13043); assay: as above; type: binding; conditions: STK4 (NP_006273), Nluc orientation N; read-out: Probe EC50
[13] = target: full-length kinase/Nluc fusion proteins (Homo sapiens, UniProt Q96L34); assay: as above; type: binding; conditions: MARK4, Nluc N; read-out: Probe EC50
[14] = target: full-length kinase/Nluc fusion proteins (Homo sapiens, UniProt O43283); assay: as above; type: binding; conditions: MAP3K13, Nluc N; read-out: Probe EC50
[15] = target: full-length kinase/Nluc fusion proteins (Homo sapiens, UniProt Q12852); assay: as above; type: binding; conditions: MAP3K12, Nluc N; read-out: Probe EC50
[16] = target: full-length kinase/Nluc fusion proteins (Homo sapiens, UniProt Q9NY57); assay: as above; type: binding; conditions: STK32B (NP_060871), Nluc orientation N; read-out: Probe EC50
[17] = target: full-length kinase/Nluc fusion proteins (Homo sapiens, UniProt P28482); assay: as above; type: binding; conditions: MAPK1, Nluc N; read-out: Probe EC50
[18] = target: full-length kinase/Nluc fusion proteins (Homo sapiens, UniProt Q9UK32); assay: as above; type: binding; conditions: RPS6KA6 (NP_055311), Nluc orientation N; read-out: Probe EC50
[19] = target: full-length kinase/Nluc fusion proteins (Homo sapiens, UniProt Q7KZI7); assay: as above; type: binding; conditions: MARK2, Nluc N; read-out: Probe EC50
[20] = target: full-length kinase/Nluc fusion proteins (Homo sapiens, UniProt Q13470); assay: as above; type: binding; conditions: TNK1 (NP_003976), Nluc orientation N; read-out: Probe EC50
Sequence of full-length kinase/Nluc fusion proteins (Homo sapiens, UniProt Q13470) (Q13470 whole entry, the tested form may be a part): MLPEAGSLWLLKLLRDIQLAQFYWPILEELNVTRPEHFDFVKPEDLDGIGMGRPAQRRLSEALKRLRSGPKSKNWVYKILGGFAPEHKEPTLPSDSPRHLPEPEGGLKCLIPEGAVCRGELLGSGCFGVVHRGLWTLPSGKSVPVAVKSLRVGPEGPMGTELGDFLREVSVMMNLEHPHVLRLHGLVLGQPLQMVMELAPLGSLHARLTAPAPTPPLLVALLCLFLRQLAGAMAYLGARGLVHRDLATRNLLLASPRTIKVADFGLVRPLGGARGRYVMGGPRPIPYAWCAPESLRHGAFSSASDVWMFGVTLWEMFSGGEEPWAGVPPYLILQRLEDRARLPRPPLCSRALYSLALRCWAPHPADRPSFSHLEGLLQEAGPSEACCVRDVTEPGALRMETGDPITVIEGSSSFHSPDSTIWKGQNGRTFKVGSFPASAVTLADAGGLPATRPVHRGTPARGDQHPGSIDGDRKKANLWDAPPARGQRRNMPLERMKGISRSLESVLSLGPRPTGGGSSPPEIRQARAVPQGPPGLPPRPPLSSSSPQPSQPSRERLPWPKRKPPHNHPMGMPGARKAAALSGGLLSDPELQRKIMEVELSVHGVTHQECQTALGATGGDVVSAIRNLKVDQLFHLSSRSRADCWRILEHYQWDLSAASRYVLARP

Sequence of full-length kinase/Nluc fusion proteins (Homo sapiens, UniProt P45983) (P45983 whole entry, the tested form may be a part): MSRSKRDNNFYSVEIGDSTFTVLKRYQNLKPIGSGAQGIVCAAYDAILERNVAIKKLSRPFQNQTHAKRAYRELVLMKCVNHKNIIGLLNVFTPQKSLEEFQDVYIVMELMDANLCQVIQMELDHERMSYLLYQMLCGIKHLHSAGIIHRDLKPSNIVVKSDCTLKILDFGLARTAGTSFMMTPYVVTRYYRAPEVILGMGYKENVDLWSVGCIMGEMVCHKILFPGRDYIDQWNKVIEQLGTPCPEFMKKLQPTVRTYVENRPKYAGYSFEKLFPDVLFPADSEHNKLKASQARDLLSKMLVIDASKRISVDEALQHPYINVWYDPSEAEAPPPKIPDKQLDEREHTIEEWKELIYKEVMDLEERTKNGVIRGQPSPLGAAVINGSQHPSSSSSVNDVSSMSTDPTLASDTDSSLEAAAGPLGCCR
Sequence of full-length kinase/Nluc fusion proteins (Homo sapiens, UniProt P06239) (P06239 whole entry, the tested form may be a part): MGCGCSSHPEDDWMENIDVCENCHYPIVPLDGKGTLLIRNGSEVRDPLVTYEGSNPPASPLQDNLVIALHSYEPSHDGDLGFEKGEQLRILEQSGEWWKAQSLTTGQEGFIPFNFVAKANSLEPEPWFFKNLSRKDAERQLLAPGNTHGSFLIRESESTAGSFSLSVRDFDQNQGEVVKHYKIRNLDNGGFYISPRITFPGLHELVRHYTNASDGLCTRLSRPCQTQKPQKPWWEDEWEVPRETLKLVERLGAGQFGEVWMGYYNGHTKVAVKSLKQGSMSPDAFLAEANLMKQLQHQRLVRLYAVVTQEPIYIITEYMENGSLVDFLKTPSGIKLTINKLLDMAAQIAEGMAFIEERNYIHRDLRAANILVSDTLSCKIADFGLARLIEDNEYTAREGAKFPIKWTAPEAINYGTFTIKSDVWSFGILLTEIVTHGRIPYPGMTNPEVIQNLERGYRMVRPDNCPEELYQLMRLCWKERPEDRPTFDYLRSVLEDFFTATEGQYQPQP
Sequence of full-length kinase/Nluc fusion proteins (Homo sapiens, UniProt P09769) (P09769 whole entry, the tested form may be a part): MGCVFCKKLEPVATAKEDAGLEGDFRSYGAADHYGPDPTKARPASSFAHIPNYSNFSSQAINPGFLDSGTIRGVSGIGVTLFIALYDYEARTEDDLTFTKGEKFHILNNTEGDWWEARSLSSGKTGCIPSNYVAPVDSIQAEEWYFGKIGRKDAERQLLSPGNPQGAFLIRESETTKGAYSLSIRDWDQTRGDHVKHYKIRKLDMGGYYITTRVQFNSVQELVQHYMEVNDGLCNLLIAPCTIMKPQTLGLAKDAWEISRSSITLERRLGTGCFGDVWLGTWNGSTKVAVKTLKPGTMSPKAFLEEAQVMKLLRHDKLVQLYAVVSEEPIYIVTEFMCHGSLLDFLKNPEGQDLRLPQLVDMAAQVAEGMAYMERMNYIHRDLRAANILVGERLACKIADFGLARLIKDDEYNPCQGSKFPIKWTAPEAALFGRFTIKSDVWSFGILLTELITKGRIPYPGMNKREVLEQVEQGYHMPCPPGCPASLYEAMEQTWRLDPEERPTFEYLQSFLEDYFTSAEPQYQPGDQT
Sequence of full-length kinase/Nluc fusion proteins (Homo sapiens, UniProt O43283) (O43283 whole entry, the tested form may be a part): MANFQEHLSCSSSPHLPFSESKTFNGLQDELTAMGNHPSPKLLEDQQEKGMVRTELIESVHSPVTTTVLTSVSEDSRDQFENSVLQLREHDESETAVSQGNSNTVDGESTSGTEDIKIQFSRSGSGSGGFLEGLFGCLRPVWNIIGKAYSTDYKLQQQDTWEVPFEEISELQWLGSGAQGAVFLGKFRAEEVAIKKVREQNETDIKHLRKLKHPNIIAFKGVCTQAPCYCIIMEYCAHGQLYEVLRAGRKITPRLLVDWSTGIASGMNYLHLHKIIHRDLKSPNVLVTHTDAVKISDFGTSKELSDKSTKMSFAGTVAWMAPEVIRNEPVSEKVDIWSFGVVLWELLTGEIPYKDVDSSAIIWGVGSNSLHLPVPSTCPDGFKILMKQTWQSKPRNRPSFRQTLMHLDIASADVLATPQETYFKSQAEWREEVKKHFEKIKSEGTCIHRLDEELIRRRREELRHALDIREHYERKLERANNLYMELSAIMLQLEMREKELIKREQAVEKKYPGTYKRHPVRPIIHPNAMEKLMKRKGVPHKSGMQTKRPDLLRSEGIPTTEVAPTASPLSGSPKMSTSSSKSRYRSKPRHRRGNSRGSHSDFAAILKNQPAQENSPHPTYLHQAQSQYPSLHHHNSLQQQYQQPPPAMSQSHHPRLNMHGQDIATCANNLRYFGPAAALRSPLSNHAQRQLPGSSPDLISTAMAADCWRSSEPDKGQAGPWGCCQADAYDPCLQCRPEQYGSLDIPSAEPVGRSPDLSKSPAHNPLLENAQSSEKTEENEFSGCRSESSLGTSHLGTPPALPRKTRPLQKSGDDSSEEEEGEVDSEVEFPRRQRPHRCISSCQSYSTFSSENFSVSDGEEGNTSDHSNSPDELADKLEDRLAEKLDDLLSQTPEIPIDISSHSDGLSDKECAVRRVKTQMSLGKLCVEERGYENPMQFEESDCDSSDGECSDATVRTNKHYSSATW
Sequence of full-length kinase/Nluc fusion proteins (Homo sapiens, UniProt Q12852) (Q12852 whole entry, the tested form may be a part): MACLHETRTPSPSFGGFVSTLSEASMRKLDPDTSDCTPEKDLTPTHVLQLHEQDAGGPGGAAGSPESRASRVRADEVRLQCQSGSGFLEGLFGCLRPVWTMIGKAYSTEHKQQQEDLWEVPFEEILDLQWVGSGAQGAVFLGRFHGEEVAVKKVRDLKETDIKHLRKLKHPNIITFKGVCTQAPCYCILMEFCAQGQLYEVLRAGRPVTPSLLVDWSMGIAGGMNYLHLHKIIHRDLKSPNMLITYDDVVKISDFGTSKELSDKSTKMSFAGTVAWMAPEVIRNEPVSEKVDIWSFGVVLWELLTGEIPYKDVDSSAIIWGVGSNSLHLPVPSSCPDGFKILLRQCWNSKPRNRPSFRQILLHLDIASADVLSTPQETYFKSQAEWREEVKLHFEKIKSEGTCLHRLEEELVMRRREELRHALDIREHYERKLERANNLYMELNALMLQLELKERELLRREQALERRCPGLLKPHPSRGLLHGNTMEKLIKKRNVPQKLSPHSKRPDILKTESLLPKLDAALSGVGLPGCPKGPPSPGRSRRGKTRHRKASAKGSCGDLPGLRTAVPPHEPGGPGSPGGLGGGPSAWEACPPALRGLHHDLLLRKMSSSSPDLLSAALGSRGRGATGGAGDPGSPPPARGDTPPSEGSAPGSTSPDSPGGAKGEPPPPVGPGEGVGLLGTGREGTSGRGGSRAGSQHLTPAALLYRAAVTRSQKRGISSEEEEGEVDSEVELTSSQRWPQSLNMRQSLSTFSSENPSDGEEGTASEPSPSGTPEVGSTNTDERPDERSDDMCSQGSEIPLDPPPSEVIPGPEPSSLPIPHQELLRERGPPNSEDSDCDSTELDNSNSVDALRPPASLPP
Sequence of full-length kinase/Nluc fusion proteins (Homo sapiens, UniProt Q13043) (Q13043 whole entry, the tested form may be a part): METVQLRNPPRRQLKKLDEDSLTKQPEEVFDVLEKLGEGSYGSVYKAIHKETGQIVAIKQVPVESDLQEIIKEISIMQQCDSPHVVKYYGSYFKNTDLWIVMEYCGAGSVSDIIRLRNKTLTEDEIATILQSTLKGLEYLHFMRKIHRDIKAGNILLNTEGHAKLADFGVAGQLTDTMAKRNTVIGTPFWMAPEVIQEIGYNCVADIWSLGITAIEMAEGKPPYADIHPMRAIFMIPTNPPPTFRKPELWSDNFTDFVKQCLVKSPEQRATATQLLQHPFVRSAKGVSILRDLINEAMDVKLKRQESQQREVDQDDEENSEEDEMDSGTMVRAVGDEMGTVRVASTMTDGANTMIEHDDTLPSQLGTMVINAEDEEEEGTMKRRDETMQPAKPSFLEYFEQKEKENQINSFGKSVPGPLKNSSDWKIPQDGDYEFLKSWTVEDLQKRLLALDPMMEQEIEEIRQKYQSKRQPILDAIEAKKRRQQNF
Sequence of full-length kinase/Nluc fusion proteins (Homo sapiens, UniProt Q9NY57) (Q9NY57 whole entry, the tested form may be a part): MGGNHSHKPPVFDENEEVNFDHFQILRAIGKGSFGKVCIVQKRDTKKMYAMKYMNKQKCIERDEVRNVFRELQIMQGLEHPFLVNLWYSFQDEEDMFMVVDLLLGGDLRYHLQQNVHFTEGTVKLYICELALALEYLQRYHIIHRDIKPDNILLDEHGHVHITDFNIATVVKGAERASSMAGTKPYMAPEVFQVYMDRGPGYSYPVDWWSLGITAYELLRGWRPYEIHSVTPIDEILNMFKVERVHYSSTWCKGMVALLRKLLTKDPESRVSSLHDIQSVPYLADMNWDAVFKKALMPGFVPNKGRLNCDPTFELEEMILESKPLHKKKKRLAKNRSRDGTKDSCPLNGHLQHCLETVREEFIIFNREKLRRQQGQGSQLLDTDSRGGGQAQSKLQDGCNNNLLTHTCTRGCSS

EC50 (EPHB6; ATP Depleted): > 1000 nM
EC50 (EPHB6; Live): > 1000 nM
EC50 (EPHB6; Permeabilized): 7 ± 3 nM
EC50 [1]: 200 nM
EC50 [2]: 700 nM
EC50 ([3]; Nluc C (probe 6)): > 1000 nM
EC50 [4]: 300 nM
EC50 [5]: > 1000 nM
EC50 [6]: > 1000 nM
Structure (SMILES): Cc1nc(Nc2ncc(C(=O)Nc3c(C)cccc3Cl)s2)cc(N2CCN(CCOCCNC(=O)CCc3ccc4n3[B-](F)(F)[N+]3=C(c5ccc[nH]5)C=CC3=C4)CC2)n1 [Energy Transfer Probe 6, 2-((6-(4-(2-(2-aminoethoxy)ethyl)piperazin-1-yl)-2-methylpyrimidin-4-yl)amino)-N-(2-chloro-6-methylphenyl)thiazole-5-carboxamide-NanoBRET 590]

Structure (SMILES): C[C@@H](Oc1cc(-c2cnn(C3CCNCC3)c2)cnc1N)c1c(Cl)ccc(F)c1Cl [Crizotinib]
receptor occupancy at 1 µM (EPHB6; read-out: cellular occupancy): < 10%

EC50 [7]: > 1000 nM
EC50 ([8]; JNK1, Nluc N): > 1000 nM
EC50 ([8]; MAPK8, Nluc N): 300 nM
EC50 [9]: > 1000 nM
EC50 [10]: 400 nM
EC50 [11]: > 1000 nM
EC50 [12]: > 1000 nM
EC50 ([3]; Nluc C (probe 5)): > 1000 nM
EC50 [13]: > 1000 nM
EC50 [14]: 200 nM
EC50 [15]: > 1000 nM
EC50 [16]: 600 nM
EC50 [17]: > 1000 nM
EC50 [18]: 400 nM
EC50 [19]: > 1000 nM
EC50 [20]: 50 nM
Structure (SMILES): CNC(=O)c1ccccc1Nc1nc(Nc2ccc(N3CCN(C(=O)CCOCCOCCOCCOCCNC(=O)CCc4ccc5n4[B-](F)(F)[N+]4=C(c6ccc[nH]6)C=CC4=C5)CC3)cc2)ncc1Cl [Energy Transfer Probe 5, 2-((2-((4-(4-(1-amino-3,6,9,12-tetraoxapentadecan-15-oyl)piperazin-1-yl)phenyl)amino)-5-chloropyrimidin-4-yl)amino)-N-methylbenzamide-NanoBRET 590]
